Molecules are shown by their SMILES.

Series [1] can be described thus: in vitro growth-inhibiting assay of rat L6 cells. It counts as cell-based. The note with it: rat; Table 8; read-out: 50% growth-inhibiting concentration (nM) cytotoxicity L6. As to the method: Rat L6 cell (rat skeletal myoblast cell) was cultured in RPMI-1640 culture medium supplemented with 1% of L-glutamine (200 mM) and fetal calf serum (10%) under 5% CO2 concentration at 37° C. A test sample was prepared by dissolving the test compounds according to the present invention and a positive control drug in DMSO to a predetermined concentration. After pre-culture had been finished, the culture medium containing the cells in a logarithmic phase was placed into each well of a 96-well culture plate, and the test sample comprising the predetermined amount of the test compound, and DMSO without the test compound were added to the wells in duplicate.
(§1) After incubation of the culture plate for 72 hours in an incubator, a growth-inhibiting activity was assayed as follows. Alamar Blue aqueous solution (10 μL) was added to each well followed by a further two-hour culture. The culture plate was then attached to a fluorescence micro titer plate reader (Spectramax Gemeni XS; U.S. Molecular Device Co.), and the intensity of fluorescence at 588 nm was detected with an excitation wave length of 536 nm. A residual ratio of L6 cells was calculated with respect to a group treated with the test sample and a control group. A growth-inhibiting ratio for L6 cells was then calculated from the resulting residual ratio in accordance with the following equation to determine 50% growth-inhibiting concentration (EC50).
Growth-inhibiting ratio (%)=[1−(C−A)/(B−A)]×100 • A: Initial number of cells; • B: Number of the cells in the control after 3 days; and • C: Number of the cells treated with the test sample after 3 days Determination of Pharmaceutical effect for Chloroquine-Resistant Malaria

Series [2] relates to Trypanosoma brucei rhodensiense (STIB 900 strain). The series can be described thus: in vitro growth-inhibiting screening assay, protozoa of African trypanosomiasis. The series is classed as cell-based. On the procedure: This test was done using a trypomastigote of the protozoa of Trypanosoma brucei rhodensiense (STIB 900 strain) ranging in blood stream. MEM medium sterilized by filtration was supplemented with 25 mM of N-2-hydroxyethylpiperazine-2-ethanesulfonic acid (HEPES), 1 g/L of glucose, 1% of MEM non-essential amino acids, 0.2 mM of 2-mercaptoethanol, 2 mM of sodium pyruvate, 1 mM of hypoxathine and 15% of heat-treated horse serum. The protozoa were cultured under CO2 concentration of 5%, at 37° C.
A test sample was prepared by dissolving the test compounds according to the present invention and a positive control drug (Melarsoprol) in DMSO to a predetermined concentration. Culture medium containing the protozoa of 8×10^3, and the test sample comprising the predetermined amount of the test compound, and DMSO without the test compound were added into each well of 96-well culture plate to a final volume of 100 μL in duplicate.
as §1, with “Co.),” for “Co.), and”, “with” for “with an”, “nm to calculate an infection” for “nm. A residual”, “the protozoa” for “L6 cells was calculated”, “ratio” for “ratio for L6 cells”, “infection” for “residual”
Growth-inhibiting ratio (%)=[1−(b−a)/(c−a)]×100 • a: Initial infection ratio; • b: Infection ratio of the test sample group; and • c: Infection ratio of the control group.
A selective toxicity coefficient, which is used as an index for the selective toxicity for the protozoa of African trypanosomiasis, was calculated by the following equation, and the pharmaceutical effect was determined.
Selective toxicity coefficient=(EC50 value of the test sample for rat L6 cell)/(EC50 value of the test sample for the protozoa of African typanosomiasis)

In the case of `Nc1nc(N)nc(Nc2ccc([As]3SCC(CO)S3)cc2)n1` (stereo not drawn) [Melarsoprol, reference compound], the EC50 at 72 h in series [1] came out at 7800 nM. This compound had a Selective toxicity in series [2] (EC50 rat L6 cell / EC50 protozoa of African trypanosomiasis) of 1300. Moreover, in series [2] (Trypanosoma brucei, STIB900, 72 h, read-out: 50% growth-inhibiting concentration (nM) Trypanosoma brucei rhod.), the EC50 stood at 6 nM.
